This is an account of results in ChEMBL document CHEMBL1130013, “Diltiazem-like calcium entry blockers: a hypothesis of the receptor-binding site based on a comparative molecular field analysis model” (J Med Chem, 1997).

pIC50: −log10 of the molar value.

In the assay the target is Voltage-dependent L-type calcium channel subunit alpha-1D (Rattus norvegicus, UniProt P27732). Put plainly: Inhibition of [3H]nitrendipine binding to L-type [Ca2+] channel in rat cortex homogenate, activity expressed as pIC50.
Voltage-dependent L-type calcium channel subunit alpha-1D, sequence (P27732 whole entry): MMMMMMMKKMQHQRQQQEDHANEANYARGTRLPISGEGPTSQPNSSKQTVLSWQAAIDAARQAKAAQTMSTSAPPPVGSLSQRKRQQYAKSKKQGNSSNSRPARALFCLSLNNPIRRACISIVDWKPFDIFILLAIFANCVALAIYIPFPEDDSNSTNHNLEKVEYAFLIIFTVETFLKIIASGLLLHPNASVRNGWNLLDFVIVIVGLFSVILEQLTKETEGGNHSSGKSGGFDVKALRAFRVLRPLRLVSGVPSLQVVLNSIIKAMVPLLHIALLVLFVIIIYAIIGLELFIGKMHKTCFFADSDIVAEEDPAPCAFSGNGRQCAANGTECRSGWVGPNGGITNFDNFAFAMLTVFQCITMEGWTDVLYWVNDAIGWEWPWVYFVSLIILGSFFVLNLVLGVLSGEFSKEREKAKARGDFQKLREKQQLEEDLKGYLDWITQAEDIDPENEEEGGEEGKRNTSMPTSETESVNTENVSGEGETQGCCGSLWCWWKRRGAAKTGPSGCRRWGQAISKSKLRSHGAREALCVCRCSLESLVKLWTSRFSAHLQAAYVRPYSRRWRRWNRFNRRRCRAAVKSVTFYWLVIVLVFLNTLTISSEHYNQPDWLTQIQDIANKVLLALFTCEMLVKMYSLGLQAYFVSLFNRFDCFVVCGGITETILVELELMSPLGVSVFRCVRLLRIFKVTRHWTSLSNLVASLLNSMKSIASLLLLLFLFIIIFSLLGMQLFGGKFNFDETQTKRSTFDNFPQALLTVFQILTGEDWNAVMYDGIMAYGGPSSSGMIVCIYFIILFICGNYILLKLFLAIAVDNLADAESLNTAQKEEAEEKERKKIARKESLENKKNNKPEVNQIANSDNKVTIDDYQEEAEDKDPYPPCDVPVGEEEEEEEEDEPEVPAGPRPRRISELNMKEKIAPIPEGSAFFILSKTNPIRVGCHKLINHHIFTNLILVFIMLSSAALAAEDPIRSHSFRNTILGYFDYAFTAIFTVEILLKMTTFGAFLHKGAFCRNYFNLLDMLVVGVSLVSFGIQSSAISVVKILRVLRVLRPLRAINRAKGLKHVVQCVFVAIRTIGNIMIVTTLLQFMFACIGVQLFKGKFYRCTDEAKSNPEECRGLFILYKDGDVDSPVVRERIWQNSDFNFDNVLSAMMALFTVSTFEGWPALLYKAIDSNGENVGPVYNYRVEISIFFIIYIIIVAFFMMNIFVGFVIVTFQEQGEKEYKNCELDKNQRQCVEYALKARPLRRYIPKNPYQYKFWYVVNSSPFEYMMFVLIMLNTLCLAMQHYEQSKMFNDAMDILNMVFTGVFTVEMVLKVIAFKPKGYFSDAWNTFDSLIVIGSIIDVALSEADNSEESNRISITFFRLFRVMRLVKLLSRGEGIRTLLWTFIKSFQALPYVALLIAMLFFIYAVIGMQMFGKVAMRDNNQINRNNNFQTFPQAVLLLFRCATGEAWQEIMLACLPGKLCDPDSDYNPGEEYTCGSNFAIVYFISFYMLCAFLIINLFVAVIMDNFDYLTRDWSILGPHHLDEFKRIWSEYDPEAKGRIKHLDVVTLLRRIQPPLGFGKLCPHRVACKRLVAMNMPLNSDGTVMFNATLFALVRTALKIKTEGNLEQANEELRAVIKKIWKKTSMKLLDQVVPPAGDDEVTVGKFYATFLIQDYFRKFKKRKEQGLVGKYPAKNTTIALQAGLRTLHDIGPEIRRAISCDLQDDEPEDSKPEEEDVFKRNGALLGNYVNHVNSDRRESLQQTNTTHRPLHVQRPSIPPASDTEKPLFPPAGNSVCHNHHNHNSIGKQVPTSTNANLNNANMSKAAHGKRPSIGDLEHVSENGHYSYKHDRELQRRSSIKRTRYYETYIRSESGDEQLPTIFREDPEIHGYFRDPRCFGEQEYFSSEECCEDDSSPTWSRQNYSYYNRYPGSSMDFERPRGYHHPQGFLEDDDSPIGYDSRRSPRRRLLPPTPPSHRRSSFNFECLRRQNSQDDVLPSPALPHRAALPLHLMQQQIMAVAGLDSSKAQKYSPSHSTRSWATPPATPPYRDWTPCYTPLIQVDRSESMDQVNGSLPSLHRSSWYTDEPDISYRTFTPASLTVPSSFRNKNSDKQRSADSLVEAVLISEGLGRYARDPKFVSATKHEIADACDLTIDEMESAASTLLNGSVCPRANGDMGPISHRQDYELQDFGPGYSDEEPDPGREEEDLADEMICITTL

Regarding `COc1ccc([C@@H]2Sc3ccc(C(F)(F)F)cc3-n3c(CN(C)C)ccc3[C@@H]2OC(C)=O)cc1`, the pIC50 was 5.30.

With `COc1ccc([C@@H]2Sc3ccc(Cl)cc3-n3c(CN(C)C)ccc3[C@@H]2OC(C)=O)cc1`, the pIC50 was 8.48.

With `COc1ccc(CCN(C)Cc2ccc3n2-c2ccccc2SC3c2ccccc2)cc1OC` (centres undefined), the pIC50 is 6.70.

`CC(=O)OC1(c2ccccc2)Sc2ccccc2-n2cccc21` (centres undefined): the pIC50 was 5.33.

As to `CC(=O)O[C@H]1c2ccc(CN(C)C)n2-c2cc(C(F)(F)F)ccc2S[C@H]1c1ccccc1`, the pIC50 is 6.52.

Turning to `CN(C)Cc1ccc2n1-c1cc(C(F)(F)F)ccc1SC2(c1ccccc1)c1ccccc1`, the pIC50 is 6.97.

As for `CCC(C)NCc1ccc2n1-c1ccccc1SC2C1=CCC(OC)(OC)C=C1` (centres undefined), the pIC50 was 7.92.

On to `CC(=O)O[C@H]1c2ccc(CN(C)C)n2-c2cc(Cl)ccc2S[C@H]1c1ccccc1`, for which the pIC50 is 5.91.

As for `c1ccc(C2(c3ccccc3)Sc3ccccc3-n3cccc32)cc1`, the pIC50 was 6.33.

Regarding `CCC(C)NCc1ccc2n1-c1ccccc1SC2c1ccc(OC)cc1OC` (centres undefined), the pIC50 is 7.82.

Regarding `O=C1CC[C@H]2[C@H](c3ccccc3)Sc3ccccc3N12`, the pIC50 is 9.11.

For `COc1ccc([C@@H]2Sc3ccccc3N3C(=O)CC[C@@H]23)cc1`, the pIC50 was 8.36.

For the compound `CC(=O)OC1(c2ccccc2)Sc2ccc(C(F)(F)F)cc2-n2cccc21` (centres undefined), the pIC50 was 7.19.

As to `COC1(OC)C=CC(C2(C3=CCC(OC)(OC)C=C3)Sc3ccccc3-n3cccc32)=CC1`, the pIC50 is 5.30.

With `CN(C)Cc1ccc2n1-c1cccc(Cl)c1SC2(c1ccccc1)c1ccccc1`, the pIC50 was 7.09.

`COc1ccc(C2Sc3ccccc3-n3c(CN(C)C)ccc32)c(OC)c1` (centres undefined): the pIC50 was 6.82.

As for `COc1ccc(C2(OC(C)=O)Sc3ccccc3-n3cccc32)cc1` (centres undefined), the pIC50 was 7.52.

Take `CN(C)Cc1ccc2n1-c1ccccc1SC2c1ccccc1` (centres undefined): the pIC50 was 6.50.

Regarding `COc1ccc([C@@H]2Sc3ccccc3-n3c(CN(C)C)ccc3[C@@H]2OC(C)=O)cc1`, the pIC50 is 6.87.

On to `Clc1ccc2c(c1)-n1cccc1C(c1ccccc1)(c1ccccc1)S2`, for which the pIC50 was 5.36.

As to `COc1ccc(C2Sc3ccccc3-n3c(CN(C)CCc4ccc(OC)c(OC)c4)ccc32)cc1` (centres undefined), the pIC50 was 7.28.

For the compound `FC(F)(F)c1ccc2c(c1)-n1cccc1C(c1ccccc1)(c1ccccc1)S2`, the pIC50 is 5.69.

Consider `COc1ccc(CCNCc2ccc3n2-c2ccccc2SC3C2=CCC(OC)(OC)C=C2)cc1OC` (centres undefined), for which the pIC50 was 6.40.

With `COc1ccc(C2Sc3ccccc3-n3c(CN(C)CCc4ccc(OC)c(OC)c4)ccc32)c(OC)c1` (centres undefined), the negative logarithm of the IC50 (pIC50) is 5.80.

Consider `CC(=O)O[C@H]1c2ccc(CN(C)C)n2-c2ccccc2S[C@H]1c1ccccc1`, for which the pIC50 was 5.30.

On to `COC1(OC)C=CC(C2(C3=CCC(OC)(OC)C=C3)Sc3ccc(C(F)(F)F)cc3-n3cccc32)=CC1`, for which the pIC50 was 5.30.

`Clc1cccc2c1SC(c1ccccc1)(c1ccccc1)c1cccn1-2`: the pIC50 is 6.50.

Regarding `COc1ccc(C2Sc3ccccc3-n3c(CN4CCOCC4)ccc32)cc1` (centres undefined), the pIC50 is 5.30.

For the compound `COc1ccc(C2(c3ccc(OC)cc3)Sc3ccccc3-n3c(CN(C)C)ccc32)cc1`, the negative-log IC50 (pIC50) was 5.66.
